For one test, the system named is HDAC5. Put plainly: Phospho explorer antibody microarray of LPS-treated RAW 264.7 cells: HDAC5. It is filed as cell-based. To be noted: 200 μM peptide 1 hour then LPS 1 μg/mL 30 minutes, compared to cells treated with only LPS. As to the method: (§1) RAW 264.7 cells were starved in 0.5% FBS for 2 hours and treated with 200 μM of the peptide of SEQ ID NO: 1 for 1 hour, and then inflammation was induced at 37° C. for 30 minutes with LPS (1 μg/mL). Cell lysates of untreated cells (NT), cells treated with LPS, and cells treated with SEQ ID NO: 1 and LPS were applied to a Phospho explorer antibody microarray from Full Moon Biosystems. The phospho microarray is capable of recognizing 1318 antibodies related to 30 signaling systems. A standard-size coated glass microscope slide was coated with each antibody. =It was scanned with a GenePix 4100A scanner (Axon Instrument, Foster City, CA, USA). Data were analyzed with Genowiz 4.0™ (Ocimum Biosolutions, Hyderabad, India). The phosphorylation ratio was calculated as follows.
(§2) Formula for calculating phosphorylation ratio in each antibody: Phosphorylation ratio=(phosphorylation value of experimental group/non-phosphorylation value of experimental group)/(phosphorylation value of control group/non-phosphorylation value of control group)

The test system of a further test is NF-κB p100/p52. Put plainly: Phospho explorer antibody microarray of LPS-treated RAW 264.7 cells: NF-κB p100/p52. It is filed as cell-based. The following applies: 200 μM peptide 1 hour then LPS 1 μg/mL 30 minutes, compared to cells treated with only LPS. As to the method: as §1, §2
The next test has as its system NF-κB p105/p50. Put plainly: Phospho explorer antibody microarray of LPS-treated RAW 264.7 cells: NF-κB p105/p50. It is filed as cell-based. The following applies: 200 μM peptide 1 hour then LPS 1 μg/mL 30 minutes, compared to cells treated with only LPS. As to the method:
as §1, §2

The test system of another test is IκBα. Put plainly: Phospho explorer antibody microarray of LPS-treated RAW 264.7 cells: IκBα. The test is classed as cell-based. To be noted: 200 μM peptide 1 hour then LPS 1 μg/mL 30 minutes, compared to cells treated with only LPS. As to the method:
as §1, §2

The target in the next test is T1, HDAC5 protein (Homo sapiens, UniProt Q9UQL6).
T1 construct: purchased Abcam
Put plainly: Biacore T200 binding affinity to immobilised HDAC5 protein. To be noted: CM5 chip, 1:1 binding model. (Surface plasmon resonance follows binding to a sensor surface in real time, without labels.)

In test [1] the test system is collagen-induced arthritis (CIA) rats. The test can be described thus: Collagen-induced arthritis animal model. It is filed as in vivo, Wistar rats. To be noted: for Hind paw swelling inhibition (%): 38th day. From the text: In order to determine whether or not the peptide according to the present invention is effective in treating rheumatoid arthritis in vivo, the effect of treating arthritis thereof was detected in a collagen-induced arthritis animal model. For this purpose, female Wistar rats (105-135 g, n=67) were purchased from Harlan Co. Ltd. (Indianapolis, IN, USA). All rats were bred in a pathogen-free environment and sterilized standard rat feed (Harlan Co. Ltd, USA) and water were freely fed to the rats. Animal experiments were conducted with the approval of the Institutional Animal Care and Use Committee (IACUC) of Seoul National University. Collagen-induced arthritis was induced in a known manner (Nishikawa et al., Arthritis and rheumatism. 2003; 48:2670-81).
Specifically, 500 μg of bovine collagen type II was injected along with a mixture of 0.5 mL of 0.1 M acetic acid and 0.5 mL of Freund's incomplete adjuvant into rat muscle. On the 7th day, 0.5 mL of 0.1 M acetic acid and 0.5 mL of Freund's incomplete adjuvant were further inoculated along with 250 μg of bovine collagen type II to produce collagen-induced arthritis (CIA) rats. The rats were classified into a CIA-induced group (n=10), a CIA-induced group injected with a low concentration of the peptide of SEQ ID NO: 1 (LD AIP, 15 mg/kg, n=10), a CIA-induced group injected with a high concentration of the peptide of SEQ ID NO: 1 (HD AIP, 30 mg/kg, n=10), a CIA-induced group injected with etanercept (Enbrel) (10 mg/kg, n=10), and a normal group (n=6). From 28 days after the first collagen injection, the peptide of SEQ ID NO: 1 was injected subcutaneously into the back of the neck twice a week over 4 weeks. Etanercept was injected intraperitoneally three times a week over 4 weeks. Swelling of both hind paws was measured twice using a plethysmometer (LE7500 N, IWOO Scientific Corporation, KOREA) on day 22, 29, 31, 35, 38, 42, 45, 49, 52, and 56. The plethysmometer was used after calibration to a weight of 3 mL. The measured area was marked by drawing a line, and measurement was conducted adjacent to the ankle. Hind paw swelling increase (%) and hind paw swelling inhibition (%) were calculated using the following equations.
In order to observe the degree of bone damage in the hind paw, microcomputed tomography (micro-CT) was performed using a SkyScan 1172 (SkyScan, Aartselaar, Belgium). The total volume (TV; mm^3), bone volume (BV; mm^3) and bone volume fraction (BV/TV; %) were analyzed using CTAn software. On the 57th day, rats were sacrificed and subjected to histological analysis. Both hind paws and joints were collected, fixed in 10% buffered formalin, and demineralized in 30% citrate-buffered formic acid at 4° ° C. for 3 days. Paraffin blocks were produced, sliced into sections with a thickness of 4 μm and stained with hematoxylin and eosin (H&E), and then the pathological score was evaluated with an optical microscope. The joint inflammation index was measured based on the following criteria (Shiozawa et al., J Clin Invest. 1997; 99 (6):1210-1216). 0, normal synovium; 1, synovial membrane hypertrophy and cell infiltrates; 2, pannus and cartilage erosion; 3, major erosion of cartilage and subchondral bone; and 4, loss of joint integrity and ankylosis.
The rats were sacrificed and systemic blood was collected, and the concentrations of TNF-α and IL-6 in the blood were measured with an ELISA kit (R&D, Minneapolis, MN, USA).

In test [2] the test system is high-fat diet C57BL/6 mice. The test can be described thus: Non-alcoholic hepatitis animal model induced by high-fat diet. The following applies: 7 weeks, peptide 15 or 30 mg/kg. It is filed as in vivo. The source says:
In order to determine whether or not the peptide according to the present invention has the effect of treating hepatitis and inhibiting obesity in vivo, a non-alcoholic hepatitis animal model induced by a high-fat diet was used. Male C57BL/6 mice (7 weeks old) were acclimated for 1 week and a total of 20 animals were divided into four experimental groups (n=5 per group), namely, a normal diet group (control), a high-fat diet group (DIO: HFD-induced obesity), a group injected with a low dose of the peptide of SEQ ID NO: 1 (LD SEQ ID NO: 1, 15 mg/kg) and a group injected with a high dose of the peptide of SEQ ID NO: 1 (HD SEQ ID NO: 1, 30 mg/kg), and were reared with the high-fat diet or the normal diet for 7 weeks. The high-fat diet was a 60% high-fat diet (Dyets, Inc). During 7 weeks of rearing, body weight and feed intake were measured twice a week. On the 50th day after 7 weeks of rearing, the animals were sacrificed, and liver and adipose tissues were collected and sized.

T1 sequence (Q9UQL6 whole entry, species assumed): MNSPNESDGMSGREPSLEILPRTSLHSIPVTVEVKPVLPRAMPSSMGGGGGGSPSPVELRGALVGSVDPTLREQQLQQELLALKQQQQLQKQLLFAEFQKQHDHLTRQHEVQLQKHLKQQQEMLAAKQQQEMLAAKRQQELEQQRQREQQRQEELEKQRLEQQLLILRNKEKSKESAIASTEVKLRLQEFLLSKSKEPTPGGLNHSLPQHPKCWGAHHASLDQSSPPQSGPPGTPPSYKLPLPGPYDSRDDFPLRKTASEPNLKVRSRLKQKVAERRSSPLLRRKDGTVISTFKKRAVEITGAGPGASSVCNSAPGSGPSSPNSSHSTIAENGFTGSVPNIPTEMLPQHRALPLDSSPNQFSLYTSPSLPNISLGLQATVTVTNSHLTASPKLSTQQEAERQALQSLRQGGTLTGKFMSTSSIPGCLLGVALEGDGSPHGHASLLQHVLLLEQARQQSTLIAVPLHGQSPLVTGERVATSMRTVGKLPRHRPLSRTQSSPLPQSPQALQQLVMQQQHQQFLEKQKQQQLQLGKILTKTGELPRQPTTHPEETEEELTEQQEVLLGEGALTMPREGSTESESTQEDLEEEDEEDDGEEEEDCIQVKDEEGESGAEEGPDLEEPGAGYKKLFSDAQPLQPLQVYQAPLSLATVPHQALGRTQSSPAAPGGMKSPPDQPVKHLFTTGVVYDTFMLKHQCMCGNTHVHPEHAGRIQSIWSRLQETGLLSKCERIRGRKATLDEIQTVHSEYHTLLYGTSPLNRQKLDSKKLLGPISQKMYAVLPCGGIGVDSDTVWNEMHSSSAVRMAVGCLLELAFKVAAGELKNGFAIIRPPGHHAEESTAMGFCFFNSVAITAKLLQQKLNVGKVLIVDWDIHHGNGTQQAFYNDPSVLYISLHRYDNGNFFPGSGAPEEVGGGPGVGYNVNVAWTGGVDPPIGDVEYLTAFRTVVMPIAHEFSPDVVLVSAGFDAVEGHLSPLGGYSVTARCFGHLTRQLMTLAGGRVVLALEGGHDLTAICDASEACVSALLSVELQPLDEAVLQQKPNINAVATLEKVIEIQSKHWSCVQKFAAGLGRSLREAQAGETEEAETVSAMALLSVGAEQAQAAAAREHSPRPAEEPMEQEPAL
Experimental for HDAC5 protein: For this purpose, HDAC5 protein (Abcam, MA, USA) was dissolved in sodium acetate buffer (pH 4.5), and was bound to a dextran-covered sensor chip surface (CM5 chip) using N-hydroxysuccinimide (NHS) and N-ethyl-N0-(3-dimethylaminopropyl)-carbodiimide hydrochloride (EDAC) as crosslinkers. The unreacted active group of dextran was blocked by the addition of ethanolamine (1M) thereto. The number of HDAC5 binding to the chip was measured as 4440RU (1000 RU=1 ng/mm^2). […] Rate constants for association (ka) and dissociation (kd), and a dissociation constant (KD) were calculated using BIAevaluation software and a 1:1 binding model.

Regarding `C[C@@H](O)[C@H](NC(=O)[C@H](CO)NC(=O)[C@H](CS)NC(=O)[C@H](CCCCN)NC(=O)CN)C(=O)N[C@@H](CCCNC(=N)N)C(=O)NCC(=O)N[C@@H](CCCNC(=N)N)C(=O)N[C@@H](CCCCN)C(=O)N[C@@H](CS)C(=O)N[C@@H](CS)C(=O)N[C@@H](CCCNC(=N)N)C(=O)N[C@@H](CCCNC(=N)N)C(=O)N[C@@H](CCCCN)C(=O)N[C@@H](CCCCN)C(=O)O` [SEQ ID NO: 1], the “Phosphorylation ratio of HDAC5” value with HDAC5 worked out at 0.278. The “Phosphorylation ratio of NF-κB p100/p52” value in the test with NF-κB p100/p52 is recorded as 0.451. The “Phosphorylation ratio of NF-κB p105/p50” value with NF-κB p105/p50 is 0.485. In addition, the “Phosphorylation ratio of IκBα” value with IκBα was 0.509. The same compound displayed a kd at HDAC5 protein of 0.07264 s⁻¹. For the same compound, on HDAC5 protein (read-out: ka), the kon came out at 108000 M⁻¹ s⁻¹. Further, the “Concentration of IL-6 in blood” value in test [1] (ELISA, high concentration of peptide or etanercept, CIA-induced group 109 pg/ml) was found to be 35.2 pg/mL. Further, in test [1] (ELISA, high concentration of peptide or etanercept, CIA-induced group 128 pg/ml), the “Concentration of TNF-α in blood” value was 40.3 pg/mL. For the same compound, the “Bone damage in hind paw (micro-CT)” value in test [1] (FIG. 3A) is “bone tissue was preserved”. Besides, in test [1] (FIG. 4A), the “Microscopic observation of joint tissues (inflammation, H&E)” value is reported as “decrease in inflammation in a concentration-dependent manner”. In addition, the “Hind paw swelling inhibition (%)” value in test [1] (high concentration (30 mg/kg)) came to 35%. Further, in test [1] (high concentration, micro-CT), the “Bone surface area adjusted to BV (BS/BV)” value is “low”, the “Bone volume (BV)” value is listed as “high”, the “Bone volume/tissue volume (BV/TV)” value was “high” and the “Trabecular thickness (Tb.Th)” value is “high”. For the same compound, the “Hind paw swelling inhibition (%)” value in test [1] (low concentration (15 mg/kg)) was 32%. In addition, in test [1] (peptide 15 or 30 mg/kg subcutaneously twice a week, etanercept 10 mg/kg intraperitoneally three times a week, 4 weeks), the “Hind paw swelling (%)” value is recorded as “decrease in hind paw swelling (%) in a concentration-dependent manner”. In addition, in test [1] (peptide at high concentration (30 mg/kg)), the “Hind paw swelling (%)” value is “decrease in hind paw swelling (%) between 38 and 49 days (P<0.05)”. This compound also had an Inflammation index in test [1] (score 0-4, CIA-induced group 3.3±0.67) of 1.5±1.17. Also, in test [2], the “Size of subcutaneous fat” value is given as “decreased” and the “Size of the liver” value is given as “decreased”.

The values above are taken from patent publication US12486303B2, “Use of peptide for inhibiting functions and expressions of multiple disease biomarkers” (NIBEC CO., LTD., priority 2018, dated 2025).
